Measurements published in paper PMC5956890 (Journal of medicinal chemistry, 2017).
Entries after “also recorded” stand apart in the source; their conditions may differ.

Experiments:
[1] = molecular target: T1, PPARδ (Homo sapiens, UniProt Q03181); assay: TR-FRET PPARδ coactivator assay; format: biochemical; conditions: compound alone
T1 sequence (Q03181 211-439 limits assumed): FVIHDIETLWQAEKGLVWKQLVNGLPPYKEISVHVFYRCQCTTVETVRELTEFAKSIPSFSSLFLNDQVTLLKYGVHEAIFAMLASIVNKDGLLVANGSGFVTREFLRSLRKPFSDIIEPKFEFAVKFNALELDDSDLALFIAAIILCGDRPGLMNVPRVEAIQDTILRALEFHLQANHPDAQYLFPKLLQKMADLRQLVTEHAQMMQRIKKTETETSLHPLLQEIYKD

[2] = system: hBM-MSCs; assay: adiponectin production during adipogenesis in hBM-MSCs; conditions: compared to IDX control
[3] = system: STZ-induced diabetic C57BL/6J mice; assay: STZ-induced diabetes mouse model; format: in vivo; conditions: oral 20 mg/kg for 5 days, male C57BL/6J
[4] = molecular target: T2, LXRβ (Homo sapiens, UniProt P55055); assay: TR-FRET LXRβ coactivator assay; format: biochemical; conditions: 4 µM, compared to positive control 20
T2 sequence (P55055 1-460): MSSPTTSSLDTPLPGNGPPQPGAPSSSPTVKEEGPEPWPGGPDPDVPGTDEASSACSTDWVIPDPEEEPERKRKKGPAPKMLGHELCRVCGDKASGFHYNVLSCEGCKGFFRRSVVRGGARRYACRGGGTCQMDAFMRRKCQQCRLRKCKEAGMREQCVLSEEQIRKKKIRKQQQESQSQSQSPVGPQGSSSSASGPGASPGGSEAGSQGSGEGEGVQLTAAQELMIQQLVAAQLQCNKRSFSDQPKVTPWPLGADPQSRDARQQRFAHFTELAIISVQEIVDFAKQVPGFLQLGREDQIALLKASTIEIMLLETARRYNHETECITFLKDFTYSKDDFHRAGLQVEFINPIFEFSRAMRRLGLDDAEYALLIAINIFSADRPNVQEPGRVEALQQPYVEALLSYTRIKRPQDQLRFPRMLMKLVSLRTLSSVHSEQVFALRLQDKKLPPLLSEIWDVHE

[5] = system: hBM-MSCs; assay: Oil Red O staining of lipid droplets in hBM-MSCs; format: cell-based, human; conditions: compared with IDX control, 7th day
[6] = molecular target: CDK5/p35 (Homo sapiens, UniProt Q00535); assay: KinaseProfiler kinase assay CDK5/p35; format: biochemical; conditions: up to 20 µM, Km ATP
[7] = molecular target: T3, LXRα (Homo sapiens, UniProt Q13133); assay: TR-FRET LXRα coactivator assay; format: biochemical; conditions: 4 µM, compared to positive control 20
T3 sequence (Q13133 1-447): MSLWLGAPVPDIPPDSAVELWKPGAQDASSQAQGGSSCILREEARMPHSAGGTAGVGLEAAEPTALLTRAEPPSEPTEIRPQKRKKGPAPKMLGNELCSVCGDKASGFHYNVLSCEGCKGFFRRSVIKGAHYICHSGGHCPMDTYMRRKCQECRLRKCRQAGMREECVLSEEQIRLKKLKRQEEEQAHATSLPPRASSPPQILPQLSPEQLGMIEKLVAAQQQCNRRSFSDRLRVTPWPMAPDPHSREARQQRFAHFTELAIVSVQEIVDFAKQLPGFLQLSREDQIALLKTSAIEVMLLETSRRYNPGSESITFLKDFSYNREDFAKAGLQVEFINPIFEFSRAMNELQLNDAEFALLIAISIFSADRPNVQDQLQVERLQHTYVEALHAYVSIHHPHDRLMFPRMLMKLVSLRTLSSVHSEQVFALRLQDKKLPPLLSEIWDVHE

[8] = molecular target: CDK5/p25 (Homo sapiens, UniProt Q00535); assay: KinaseProfiler kinase assay CDK5/p25; format: biochemical; conditions: up to 20 µM, Km ATP
[9] = molecular target: T4, PPARα (Homo sapiens, UniProt Q07869); assay: TR-FRET competitive binding assay PPARα; conditions: for effect on PPARα binding: 4 µM, compared to positive control 19; for replacement of labeled PPARα ligand binding: up to 20 µM
T4 sequence (Q07869 200-468 limits assumed): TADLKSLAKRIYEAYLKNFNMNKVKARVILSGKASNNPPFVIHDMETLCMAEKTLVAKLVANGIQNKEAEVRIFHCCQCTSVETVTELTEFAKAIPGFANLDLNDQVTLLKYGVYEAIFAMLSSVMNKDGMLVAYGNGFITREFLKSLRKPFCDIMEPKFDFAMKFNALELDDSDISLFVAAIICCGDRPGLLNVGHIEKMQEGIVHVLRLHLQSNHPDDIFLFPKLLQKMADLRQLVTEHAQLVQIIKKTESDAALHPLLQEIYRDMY

[10] = molecular target: T5, GR (Homo sapiens, UniProt P04150); assay: TR-FRET competitive binding assay GR; conditions: 4 µM, compared to dexamethasone
T5 sequence (P04150 1-777): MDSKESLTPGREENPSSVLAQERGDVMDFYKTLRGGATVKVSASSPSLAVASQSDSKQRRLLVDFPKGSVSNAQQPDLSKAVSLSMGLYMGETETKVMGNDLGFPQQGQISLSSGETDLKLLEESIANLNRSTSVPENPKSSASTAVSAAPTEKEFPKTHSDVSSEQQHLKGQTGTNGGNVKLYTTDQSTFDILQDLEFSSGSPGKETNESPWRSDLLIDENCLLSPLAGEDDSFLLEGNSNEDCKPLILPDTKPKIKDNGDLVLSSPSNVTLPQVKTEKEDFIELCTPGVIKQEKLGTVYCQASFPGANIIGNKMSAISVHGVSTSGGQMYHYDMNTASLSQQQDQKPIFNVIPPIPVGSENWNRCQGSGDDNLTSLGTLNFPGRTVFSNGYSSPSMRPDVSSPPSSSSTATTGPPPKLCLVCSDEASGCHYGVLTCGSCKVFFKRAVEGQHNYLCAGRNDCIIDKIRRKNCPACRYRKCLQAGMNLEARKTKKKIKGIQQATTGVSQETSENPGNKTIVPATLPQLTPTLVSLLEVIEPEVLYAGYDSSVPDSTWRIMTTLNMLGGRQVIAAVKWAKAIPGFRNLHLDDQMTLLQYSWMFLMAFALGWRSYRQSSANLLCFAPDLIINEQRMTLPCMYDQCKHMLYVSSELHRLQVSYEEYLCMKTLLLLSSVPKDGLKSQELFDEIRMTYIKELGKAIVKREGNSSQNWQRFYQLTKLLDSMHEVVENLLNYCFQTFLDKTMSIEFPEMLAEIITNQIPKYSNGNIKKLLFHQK

[11] = molecular target: T6, PPARγ (Homo sapiens, UniProt P37231); assay: TR-FRET competitive binding assay PPARγ; conditions: concentration-response
T6 sequence (P37231 235-505 limits assumed): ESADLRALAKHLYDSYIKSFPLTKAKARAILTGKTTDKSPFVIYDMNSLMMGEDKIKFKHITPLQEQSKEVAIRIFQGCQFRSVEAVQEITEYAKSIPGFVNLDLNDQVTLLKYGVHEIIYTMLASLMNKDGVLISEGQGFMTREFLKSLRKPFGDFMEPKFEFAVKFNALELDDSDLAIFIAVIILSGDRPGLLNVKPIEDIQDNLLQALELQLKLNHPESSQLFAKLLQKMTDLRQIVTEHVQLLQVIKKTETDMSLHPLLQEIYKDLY

[12] = molecular target: hA2AAR; conditions: cited from earlier work
[13] = molecular target: T7, PPARδ (Homo sapiens, UniProt Q03181); assay: TR-FRET competitive binding assay PPARδ; conditions: concentration-response
T7 sequence (Q03181 1-441): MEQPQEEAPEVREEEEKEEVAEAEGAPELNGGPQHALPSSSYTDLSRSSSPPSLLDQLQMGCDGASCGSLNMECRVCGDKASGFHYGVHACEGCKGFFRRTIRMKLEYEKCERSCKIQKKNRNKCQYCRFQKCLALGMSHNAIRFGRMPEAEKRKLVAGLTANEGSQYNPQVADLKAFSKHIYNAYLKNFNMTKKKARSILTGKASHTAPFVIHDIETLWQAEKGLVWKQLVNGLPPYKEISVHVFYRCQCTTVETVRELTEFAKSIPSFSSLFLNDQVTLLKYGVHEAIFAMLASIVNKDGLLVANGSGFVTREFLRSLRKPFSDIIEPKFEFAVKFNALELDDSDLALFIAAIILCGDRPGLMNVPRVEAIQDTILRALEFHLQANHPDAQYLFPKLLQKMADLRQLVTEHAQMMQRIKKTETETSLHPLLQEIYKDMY

[14] = system: hA1AR; conditions: cited from earlier work

Sequence of CDK5/p35 (Q00535 whole entry): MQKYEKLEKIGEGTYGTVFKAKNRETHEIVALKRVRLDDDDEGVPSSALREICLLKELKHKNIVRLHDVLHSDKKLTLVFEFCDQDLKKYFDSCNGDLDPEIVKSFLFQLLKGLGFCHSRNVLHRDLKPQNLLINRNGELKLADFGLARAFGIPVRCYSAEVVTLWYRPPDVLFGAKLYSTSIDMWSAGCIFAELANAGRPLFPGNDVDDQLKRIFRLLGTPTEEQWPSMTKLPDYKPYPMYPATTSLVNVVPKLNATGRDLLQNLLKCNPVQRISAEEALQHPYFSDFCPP
Sequence of CDK5/p35 (Q15078 2-307 partner limits assumed): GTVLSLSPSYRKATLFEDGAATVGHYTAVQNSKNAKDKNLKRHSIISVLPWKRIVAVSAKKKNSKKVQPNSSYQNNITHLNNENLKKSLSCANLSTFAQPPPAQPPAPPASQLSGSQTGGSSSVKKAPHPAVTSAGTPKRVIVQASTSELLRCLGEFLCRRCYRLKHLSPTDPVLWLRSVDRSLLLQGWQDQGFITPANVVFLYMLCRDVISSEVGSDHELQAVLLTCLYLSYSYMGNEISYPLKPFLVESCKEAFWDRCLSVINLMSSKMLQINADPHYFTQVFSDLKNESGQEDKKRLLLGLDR
Sequence of CDK5/p25 (Q00535 whole entry): as the sequence (Q00535 whole entry) above
Sequence of CDK5/p25 (Q15078 99-307 partner limits assumed): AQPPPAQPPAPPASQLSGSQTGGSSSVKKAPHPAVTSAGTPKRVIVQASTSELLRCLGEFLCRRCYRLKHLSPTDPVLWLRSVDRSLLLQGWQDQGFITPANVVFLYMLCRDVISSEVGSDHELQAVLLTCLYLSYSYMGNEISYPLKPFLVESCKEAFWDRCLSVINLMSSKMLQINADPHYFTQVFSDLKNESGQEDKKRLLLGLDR

Row | Compound | effect on LXRβ coactivation [4] | effect on CDK5/p35 kinase activity [6] | effect on LXRα coactivation [7] | effect on CDK5/p25 kinase activity [8] | effect on PPARα binding [9] | replacement of labeled PPARα ligand binding [9] | effect on GR binding [10] | % displacement at 1 µM (hA1AR) [14] | other results
1 | CNC(=O)[C@H]1O[C@@H](n2cnc3c(NCc4cccc(I)c4)ncnc32)[C@H](O)[C@@H]1O [Compound 1a, N^6-(3-iodobenzyl)adenosine-5′-N-methyluronamide] | no significant effects | Neither 1a nor 1b affected CDK activity | no significant effects | Neither 1a nor 1b affected CDK activity | no significant effects | ≤ 50% | no significant effects | – | recruitment of labeled coactivator peptide to PPARδ [1]: no effect on the recruitment of the labeled coactivator peptide; adiponectin production during adipogenesis [2]: significantly promoted adiponectin production; also recorded: upregulated adiponectin production during adipogenesis in hBM-MSCs in a concentration-dependent manner; serum triglyceride levels [3]: downregulated serum triglyceride levels; serum glucose levels ([3]; 20 mg/kg): tended to decrease serum glucose levels; lipid droplets in differentiated adipocytes (ORO staining) [5]: increased the number and size of lipid droplets
2 | CNC(=O)[C@H]1O[C@@H](n2cnc3c(NCc4cccc(I)c4)nc(Cl)nc32)[C@H](O)[C@@H]1O [Compound 1b] | no significant effects | Neither 1a nor 1b affected CDK activity | no significant effects | Neither 1a nor 1b affected CDK activity | no significant effects | ≤ 50% | no significant effects | – | PPARγ binding activity [11]: significant competitive binding activity
3 | O=C(NC1CC1)[C@H]1S[C@@H](n2cnc3c(NCc4cccc(I)c4)ncnc32)[C@H](O)[C@@H]1O [Compound 2b, (2S,3S,4R,5R)-N-Cyclopropyl-3,4-dihydroxy-5-(6-((3-iodobenzyl)amino)-9H-purin-9-yl)tetrahydrothiophene-2-carboxamide] | – | – | – | – | – | – | – | – | Ki ([12]; read-out: Ki (hA2AAR)): 15.2 ± 2.6 nM
4 | O[C@@H]1[C@H](O)CS[C@H]1n1cnc2c(NCc3cccc(Cl)c3)nc(Cl)nc21 [Compound 3b, (2R,3R,4S)-2-(2-Chloro-6-((3-chlorobenzyl)amino)-9H-purin-9-yl)tetrahydrothiophene-3,4-diol] | – | – | – | – | – | – | – | 38% | PPARδ binding activity [13]: maximal PPARδ binding activity; % displacement at 1 µM (hA2AAR) ([12]; 1 µM): 18%
5 | O[C@@H]1[C@H](O)CS[C@H]1n1cnc2c(NCc3ccccc3Cl)nc(Cl)nc21 [Compound 3c, (2R,3R,4S)-2-(2-Chloro-6-((2-chlorobenzyl)amino)-9H-purin-9-yl)tetrahydrothiophene-3,4-diol] | – | – | – | – | – | – | – | 13% | –
